This is an account of results in US20260183274A1, “PDK1 REGULATORY COMPOUND AND COMPOSITION CONTAINING THE SAME” (PROVIBIO CO., LTD., priority 2024, published 2026).

Usually viability stands for a per cent measure of how many cells are alive, often set against a control.

Data set [1] has as its system Human Cervical Carcinoma cell line, HeLa. Kind of data set: Relative cell viability CCK-8, HeLa. The data set is classed as cell-based. As to conditions: 48 hours. The method, then: Similarly, human-derived cervical cancer cell line HeLa and renal cancer cell line ACHN, obtained from the Korean Cell Bank, were cultured in DMEM medium containing 10% FBS, 100 U/mL penicillin, and 100 μg/mL streptomycin.
(§1) Following stabilization, the cells were harvested using Trypsin-EDTA treatment, centrifuged at 1,200 rpm for 3 minutes, the supernatant was removed, and the cells were resuspended in the same medium. They were then seeded into a 96-well plate (Costar 96-well cell culture plate, Corning) at 100 μL per well, and the conditions were adjusted as indicated in Table 5.
(§2) The cells were cultured in a 5% CO2 incubator at 37° C. for 24 hours, and after stabilization of the cells, each plate was washed with 200 μL of PBS per well and treated with 50 μL of culture medium per well.
(§3) The compounds according to the present invention or the control group (DMSO) were added at concentrations of 0, 10, 30, and 50 μM in 50 μL aliquots to the plates, and the plates were cultured at 37° C. in a 5% CO2 incubator for 48 hours.
(§4) After that, 10 μL of CCK-8 was added to each well, and the plate was incubated again at 37° C. in a 5% CO2 incubator for 2 hours.
(§5) In other words, when the survival rate of untreated cells (DMSO) is set at 100%, the relative cell survival rate in each group treated with the drug at different concentrations is indicated.

Data set [2] relates to T cells isolated from mouse spleens. Kind of data set: T cell proliferation inhibition (CFSE flow cytometry, anti-CD3/anti-CD28 stimulation). The format is cell-based. As to conditions: mouse spleen T cells, 3 days; for inhibition at 0.01 µM / inhibition at 0.1 µM / inhibition at 1 µM / inhibition at 10 µM / inhibition at 30 µM / inhibition at 50 µM: Mus musculus, T-cell, 72 h, read-out: Proliferation inhibition rate (%). In short, it runs like this:
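Proliferation inhibition (%) came from flow cytometry of CFSE dilution after 3 days' culture at 37 °C with compound (10 nM, 100 nM, 1, 10, 30, 50 μM; triplicate wells). Cells were magnetically purified T cells from C57BL/6 mouse spleens, 2×10^5 per well, stimulated with 0.5 μg/mL each anti-CD3 and anti-CD28.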
In general terms: In flow cytometry, cells or beads pass a laser one at a time.

For data set [3], the system named is Human Breast Cancer cell line, MCF-7. The data set can be described thus: Relative cell viability CCK-8, MCF-7. The format is cell-based. As to conditions: 48 hours. Here is the method: (§6) Human-derived breast cancer cell line MCF-7, human-derived lung cancer cell line A549, human-derived colorectal cancer cell line HCT-116, human pancreatic cancer cell line AsPC-1, glioblastoma cell line A172, and melanoma cell line Malme-3M were obtained from the Korean Cell Bank. gastric cancer cell line SNU-719, and bladder cancer cell line T24 were cultured in RPMI-1640 medium containing 10% FBS.
as §1, §2, §3, §4, §5

Data set [4] concerns Human B Lymphocyte cell line, SU-DHL-8. Kind of data set: Relative cell viability CCK-8, SU-DHL-8. The data set is classed as cell-based. As to conditions: 48 hours, untreated (DMSO) = 100%; for viability at 1 µM / viability at 10 µM / viability at 30 µM / viability at 50 µM: Homo sapiens, SU-DHL-8, 48 h; for viability at 1 µM: read-out: Relative cell viability (%), SU-DHL-8, 1 μM; for viability at 10 µM: read-out: Relative cell viability (%), SU-DHL-8, 10 μM; for viability at 30 µM: read-out: Relative cell viability (%), SU-DHL-8, 30 μM; for viability at 50 µM: read-out: Relative cell viability (%), SU-DHL-8, 50 μM. In short, it runs like this:
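Cells grown in RPMI-1640 with 10% FBS, treated with compound at several concentrations, then given CCK-8 for 4 h at 37° C. Viability expressed as percent of DMSO-treated cells.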

In data set [5] the test system is HCT-116 colon cancer cell lines. The data set can be described thus: Matrigel Invasion Assay, HCT-116. The data set is classed as cell-based, human. The settings on record: 24 hours treatment, FIG. 30. Here is the method: To evaluate the metastasis inhibitory efficacy of the compounds of the present invention on HCT-116 colon cancer cell lines, an Invasion Assay using Matrigel was performed to assess the cells' invasion ability.
First, Matrigel was thawed on ice in RPMI-1640 medium without FBS, then diluted with DMEM at a ratio of 1:20.
The diluted Matrigel mixture was applied to the upper chamber at 100 μl per well, and 750 μl of RPMI-1640 without FBS was added to the lower chamber.
The plates were then incubated at 37° C. for 1 hour to allow the Matrigel to solidify.
After coating, the Matrigel mixture in the upper chamber was removed using a pipette, and the chamber was washed with RPMI without FBS.
Human-derived colorectal cancer cell line HCT-116, obtained from the Korean Cell Bank, was cultured in RPMI-1640 medium containing 10% FBS.
Following stabilization, the cells were harvested using Trypsin-EDTA treatment, centrifuged at 1,200 rpm for 3 minutes, the supernatant was removed, and the cells were resuspended in the same medium, the medium in the lower chamber was replaced with 750 μl of RPMI-1640 supplemented with 10% FBS, and the cells were seeded into the upper chamber at a density of 5×10^4 cells/well.
The cells were cultured for 24 hours after attachment, and then the compounds according to the present invention (G078, G085, G086, G088, G089, PBK-2024-010, PBK-2025-010, PBK-2025-013, PBK-2025-016) and the control substance DMSO were diluted and added to the upper chamber after removing the medium.
Additionally, the medium in the lower chamber was replaced with fresh RPMI-1640 containing FBS, and the culture was continued.
After an additional 24 hours, the medium was removed, and 1 ml of methanol was added for 10 minutes to fix the cells.
Subsequently, 1 ml of Hematoxylin was added and reacted for 5 minutes, followed by 1 ml of Eosin, which was reacted for 30 seconds. The sample was then washed with distilled water (DW).
After staining was complete, any remaining cells in the upper chamber were removed. Finally, the infiltrated cells were observed under a microscope, photographed, and the degree of infiltration was analyzed.

Data set [6] relates to Human Pancreas Adenocarcinoma cell line, AsPC-1. The data set can be described thus: Relative cell viability CCK-8, AsPC-1. The data set is classed as cell-based. The settings on record: 48 hours. The method, then: as §6, §1, §2, §4, §5
Data set [7] concerns Human Colorectal Carcinoma cell line, HCT-116. The data set can be described thus: Relative cell viability CCK-8, HCT-116. As to conditions: Homo sapiens, HCT-116, 48 hours. The data set is classed as cell-based. The method, then:
as §6, §1, §2, §4, §5

Data set [8] relates to Human Gastric cancer cell, SNU-719. The data set can be described thus: Relative cell viability CCK-8, SNU-719. The data set is classed as cell-based. As to conditions: 48 hours. The method, then:
as §6, §1, §2, §4, §5

Data set [9] relates to Human Bladder cancer cell, T24. The data set can be described thus: Relative cell viability CCK-8, T24. The data set is classed as cell-based. As to conditions: Homo sapiens, 48 h. Here is the method: as §6, §1, §2, §4, §5

In the case of `Nc1ncccc1C(=O)NCCCCCCCCCCCCN1CCc2ccccc2C1` [Compound 3, 2-Amino-N-[12-(3,4-dihydro-1H-isoquinolin-2-yl)-dodecyl]-nicotinamide], the viability at 1 µM was determined as 16.4% in data set [1] (1 μM); 35.4% in data set [3] (MCF7, 1 μM); 29.1% in data set [4]. In addition, the viability at 10 µM in data set [1] (10 μM) is 3.26%; in data set [3] (MCF7, 10 μM), 9.1%; in data set [4], 25.7%. Besides, the viability at 30 µM in [1] (30 μM) stood at 1.07%; in data set [3] (MCF7, 30 μM), 4.02%; in data set [4], 24.7%. Moreover, the viability at 50 µM in [1] (50 μM) worked out at 0.73%; in data set [3] (MCF7, 50 μM) it was 1.95%; in data set [4] it was 23.5%. Besides, the inhibition at 0.01 µM in data set [2] (compound 10 nM) is 4.99%. Also, in data set [2] (compound 100 nM), the inhibition at 0.1 µM stood at 0%. Moreover, the inhibition at 1 µM in data set [2] (compound 1 μM) was 0%. In addition, the inhibition at 10 µM in data set [2] (compound 10 μM) was 88.3%. The inhibition at 30 µM in data set [2] (compound 30 μM) was 100%. Besides, the inhibition at 50 µM in data set [2] (compound 50 μM) stood at 100%.
“12-(4-hydroxypiperazin-1-yl)dodecyl-N-(6-aminopurazin-2-yl) carboxamide [Compound 10]”: the “Proliferation inhibition rate (%)” value in data set [2] (compound 10 nM), in [2] (compound 100 nM), in data set [2] (compound 1 μM), in data set [2] (compound 10 μM), in data set [2] (compound 30 μM) and in [2] (compound 50 μM) was 100.00% throughout. Moreover, the “Number of infiltrated cells (invasion)” value in data set [5] is listed as “reduction in the number of infiltrated cells”.
For `CC(C)(C)OC(=O)N[C@H]1CCN(CCCCCCCCCCCCNC(=O)c2cccnc2N)C1` [Compound 49, tert-Butyl(S)-(1-(12-(2-aminonicotinamido)dodecyl)pyrrolidin-3-yl) carbamate], the “Proliferation inhibition rate (%)” value in [2] (compound 10 nM) was −22.61%; in data set [2] (compound 100 nM), 100.00%; in [2] (compound 1 μM) it was 100.00%; in [2] (compound 10 μM) it was 100.00%; in data set [2] (compound 30 μM), 100.00%; in data set [2] (compound 50 μM), 100.00%. Further, the “Number of infiltrated cells (invasion)” value in data set [5] is recorded as “reduction in the number of infiltrated cells”. The “Relative cell viability (%), SU-DHL-8” value in data set [4] (1 μM) is reported as 8.93%; in data set [4] (10 μM), 8.02%; in data set [4] (30 μM) it was 7.48%; in data set [4] (50 μM), 4.09%.
Take `O=C(NCCCCCCCCCCCCN1CCN2CCCC2C1)c1cccnc1` (stereo not shown) [Compound 23, N-(12-(hexahydropyrrolo[1,2-a]pyrazin-2 (1H)-yl)dodecyl) nicotinamide]: the viability at 1 µM in data set [6] (ASPC1, 1 μM) was determined as 42.4%; in [7], 13.1%; in data set [8], 36.1%; in [9] (1 μM), 10%; in [4] it was 16.1%. For the same molecule, the viability at 10 µM in [6] (ASPC1, 10 μM) was determined as 44.5%; in data set [7], 14.6%; in data set [8], 35.9%; in data set [9] (10 μM), 10.1%; in data set [4], 15.7%. For the same molecule, the viability at 30 µM in [6] (ASPC1, 30 μM) was 42.7%; in data set [7], 14%; in data set [8], 40.4%; in [9] (30 μM), 9.53%; in data set [4], 9.17%. The viability at 50 µM in [6] (ASPC1, 50 μM) came to 42%; in [7], 13%; in data set [8], 35.6%; in data set [9] (50 μM), 9.46%; in data set [4] it was 1.97%. Also, the inhibition at 0.01 µM in [2] (compound 10 nM) is -12.8%. In data set [2] (compound 100 nM), the inhibition at 0.1 µM was 100%. In addition, the inhibition at 1 µM in data set [2] (compound 1 μM) worked out at 100%. In data set [2] (compound 10 μM), the inhibition at 10 µM was found to be 100%. In addition, the inhibition at 30 µM in data set [2] (compound 30 μM) came to 100%. Besides, the inhibition at 50 µM in data set [2] (compound 50 μM) came out at 100%. For the same molecule, the “Number of infiltrated cells (invasion)” value in [5] is “reduction in the number of infiltrated cells”.
`Nc1ncccc1C(=O)NCCCCCCCCCCCCN1CC(F)C1` [Compound 52, 2-Amino-N-(12-(3-fluoroazetidin-1-yl)dodecyl)nicotinamide]: the inhibition at 0.01 µM in [2] (compound 10 nM) worked out at 11.3%. Also, the inhibition at 0.1 µM in data set [2] (compound 100 nM) amounted to 13.8%. The inhibition at 1 µM in data set [2] (compound 1 μM) is 100%. Moreover, the inhibition at 10 µM in data set [2] (compound 10 μM) stood at 100%. In addition, the inhibition at 30 µM in data set [2] (compound 30 μM) is 100%. Also, the inhibition at 50 µM in data set [2] (compound 50 μM) turned out to be 100%. Further, in data set [7], the viability at 1 µM amounted to 33.6%, the viability at 10 µM was 13.3%, the viability at 30 µM is 12.7% and the viability at 50 µM was determined as 11.8%. The “Number of infiltrated cells (invasion)” value in data set [5] is “reduction in the number of infiltrated cells”. In [8], this molecule came in with a viability at 1 µM of 41.2%, a viability at 10 µM of 35.9%, a viability at 30 µM of 35.5% and a viability at 50 µM of 35%. In [4], the viability at 1 µM was determined as 14.2%, the viability at 10 µM came to 11.6%, the viability at 30 µM amounted to 10.1% and the viability at 50 µM was found to be 9.15%.
